In PubChem BioAssay AID2060599 (Molecular Pharmacology Branch, DTP, NCI, 2025):

Test system: 817829-284-R-J1-PDC complex spheroids, viability
Experiment: Anticancer human tumor 817829-284-R-J1-PDC patient-derived colon adenocarcinoma cell line growth inhibition [CLK]
Conditions: for IC50: curve of first compound; for viability, T/C: stronger effect = lower value; active = viability on the fitted dose curve at most 10% of control; inactive = the rest
Method in brief: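 Patient-derived tumor cells grown as complex spheroids with HUVEC endothelial cells and mesenchymal stem cells, treated with drug combinations. Concentrations descend in half-log steps from near clinical Cmax, or from 10 microM if Cmax unknown.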

[1] = second compound 0.0316 µM, first compound 0.0316 µM
[2] = second compound 0.0316 µM, first compound 0.1 µM
[3] = second compound 0.0316 µM, first compound 0.316 µM
[4] = second compound 0.0316 µM, first compound 1 µM
[5] = second compound 0.0316 µM, first compound 3.16 µM
[6] = second compound 0.0316 µM, first compound 10 µM
[7] = second compound 0.1 µM, first compound 0.0316 µM
[8] = second compound 0.1 µM, first compound 0.1 µM
[9] = second compound 0.1 µM, first compound 0.316 µM
[10] = second compound 0.1 µM, first compound 1 µM
[11] = second compound 0.1 µM, first compound 3.16 µM
[12] = second compound 0.1 µM, first compound 10 µM
[13] = second compound 0.316 µM, first compound 0.0316 µM
[14] = second compound 0.316 µM, first compound 0.1 µM
[15] = second compound 0.316 µM, first compound 0.316 µM
[16] = second compound 0.316 µM, first compound 1 µM
[17] = second compound 0.316 µM, first compound 3.16 µM
[18] = second compound 0.316 µM, first compound 10 µM
[19] = second compound 1 µM, first compound 0.0316 µM
[20] = second compound 1 µM, first compound 0.1 µM
[21] = second compound 1 µM, first compound 0.316 µM
[22] = second compound 1 µM, first compound 1 µM
[23] = second compound 1 µM, first compound 3.16 µM
[24] = second compound 1 µM, first compound 10 µM
[25] = second compound 3.16 µM, first compound 0.0316 µM
[26] = second compound 3.16 µM, first compound 0.1 µM
[27] = second compound 3.16 µM, first compound 0.316 µM
[28] = second compound 3.16 µM, first compound 1 µM
[29] = second compound 3.16 µM, first compound 3.16 µM
[30] = second compound 3.16 µM, first compound 10 µM
[31] = second compound 10 µM, first compound 0.0316 µM
[32] = second compound 10 µM, first compound 0.1 µM
[33] = second compound 10 µM, first compound 0.316 µM
[34] = second compound 10 µM, first compound 1 µM
[35] = second compound 10 µM, first compound 3.16 µM
[36] = second compound 10 µM, first compound 10 µM
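Note: spheroids exposed to the agents for seven days before readout.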

C=C(F)C(=O)N1CCN(c2nc(OCC3CCCN3C)nc3c2CCN(c2cccc4cccc(Cl)c24)C3)CC1CC#N (centres undefined) + CN1CCN(c2cc(C(=O)Nc3cc4cc(-c5cnn(C)c5)ccc4cn3)ccn2)CC1
inactive: viability, T/C [1] 79.5% | viability, T/C [2] 71.8% | viability, T/C [3] 63.4% | viability, T/C [4] 79.5% | viability, T/C [5] 16.2% | viability, T/C [7] 24.5% | viability, T/C [8] 29.8% | viability, T/C [9] 16.7% | viability, T/C [10] 22.5%
1600 nM: IC50 (second compound 0.0316 µM)
active: viability, T/C [6] 0.06% | viability, T/C [11] 9.48% | viability, T/C [12] 0.04% | viability, T/C [13] 2.04% | viability, T/C [14] 2.26% | viability, T/C [15] 2.74% | viability, T/C [16] 2.59% | viability, T/C [17] 0.76% | viability, T/C [18] 0.04% | viability, T/C [19] 0.15% | viability, T/C [20] 0.11% | viability, T/C [21] 0.11% | viability, T/C [22] 0.11% | viability, T/C [23] 0.84% | viability, T/C [24] 0.05% | viability, T/C [25] 0.2% | viability, T/C [26] 0.19% | viability, T/C [27] 0.2% | viability, T/C [28] 0.15% | viability, T/C [29] 0.11% | viability, T/C [30] 0.08% | viability, T/C [31] 0.1% | viability, T/C [32] 0.11% | viability, T/C [33] 0.19% | viability, T/C [34] 0.21% | viability, T/C [35] 0.2% | viability, T/C [36] 0.16%
< 31.6 nM: IC50 (second compound 0.1 µM) | IC50 (second compound 0.316 µM) | IC50 (second compound 1 µM) | IC50 (second compound 3.16 µM) | IC50 (second compound 10 µM)

C=CC(=O)N1CCN(c2nc(=O)n(-c3c(C)ccnc3C(C)C)c3nc(-c4c(O)cccc4F)c(F)cc23)C(C)C1 (centres undefined) + CN1CCN(c2cc(C(=O)Nc3cc4cc(-c5cnn(C)c5)ccc4cn3)ccn2)CC1
active: viability, T/C [13] 2.69% | viability, T/C [14] 2.73% | viability, T/C [15] 3% | viability, T/C [16] 3.05% | viability, T/C [17] 3.47% | viability, T/C [18] 1.56% | viability, T/C [19] 0.15% | viability, T/C [20] 0.15% | viability, T/C [21] 0.22% | viability, T/C [22] 0.15% | viability, T/C [23] 0.1% | viability, T/C [24] 0.16% | viability, T/C [25] 0.16% | viability, T/C [26] 0.28% | viability, T/C [27] 0.2% | viability, T/C [28] 0.16% | viability, T/C [29] 0.51% | viability, T/C [30] 0.15% | viability, T/C [31] 0.08% | viability, T/C [32] 0.11% | viability, T/C [33] 0.12% | viability, T/C [34] 0.13% | viability, T/C [35] 0.12% | viability, T/C [36] 0.13%
inactive: viability, T/C [1] 75.7% | viability, T/C [2] 70.6% | viability, T/C [3] 60.9% | viability, T/C [4] 76.9% | viability, T/C [5] 49.6% | viability, T/C [6] 32.2% | viability, T/C [7] 24.9% | viability, T/C [8] 25.4% | viability, T/C [9] 22.4% | viability, T/C [10] 22.8% | viability, T/C [11] 16.1% | viability, T/C [12] 10.7%
3090 nM: IC50 (second compound 0.0316 µM)
< 31.6 nM: IC50 (second compound 0.1 µM) | IC50 (second compound 0.316 µM) | IC50 (second compound 1 µM) | IC50 (second compound 3.16 µM) | IC50 (second compound 10 µM)
